# Reference: publication PMC8308845, “Discovery of Novel Chemical Series of OXA-48 β-Lactamase Inhibitors by High-Throughput Screening” (Pharmaceuticals, 2021)
# Columns and labels:
# E. coli ATCC25922 = test: MIC by broth microdilution, antibiotic-sensitive strain; format: cell-based; settings: Escherichia coli, β-lactam alone, read-out: MIC β-lactam
# Description: (§1) To evaluate the capability of restoring β-lactam susceptibility, the two most promising representatives of SC_2 (ID3) and SC_7 (ID2) were screened alone and in combination with ampicillin (AMP) and IMP against sensitive and resistant Gram-negative bacteria. Avibactam and tazobactam were also included in the MIC characterization as BLI reference compounds. Specifically, we used E. coli ATCC25922 as antibiotic-sensitive strain, while E. coli ATCC BAA-2523 and K. pneumoniae ATCC BAA-2524 as β-lactam-resistant bacteria, producing OXA-48 carbapenemase.
# (§2) Test compounds and tazobactam were tested at 32 µg/mL, while avibactam was applied at 4 µg/mL. […] Both antibiotics were selected for the combination study as they can be hydrolyzed by the target OXA-48 enzyme.
# (§3) MIC values were determined by the broth dilution method and interpreted using published guidelines described by Clinical and Laboratory Standards Institute (CLSI).
# (§4) All BLIs were dissolved in 100% DMSO and they were tested at a fixed concentration of 32 µg/mL and 1% of DMSO final concentration. Avibactam was used as reference β-lactamase inhibitor. All antimicrobials were prepared in line with CLSI susceptibility testing standards. AMP (USP # 1033000; batch no. K1M493) was dissolved at 5.12 mg/mL, IMP (USP # 1337809; batch no. R038R0) and avibactam (Biochem # NXL 104; batch no. 20180726) were dissolved at 1.28 mg/mL in the respective solvents recommended by CLSI (2). Solutions at 4X the final concentrations of the test range were made in Cation adjusted Mueller-Hinton broth (CA-MHB, BD # 212322; batch no. 6117994; Expiry date: 29.02.2020) by serial dilutions, and then diluted 2-fold with CA-MHB (for antimicrobials alone), or with the BLIs/avibactam (for combinations of new/reference inhibitors and antimicrobials). Moreover, all BLIs were tested alone at a fixed concentration of 32 μg/mL. The final concentration of DMSO in the test tubes was 1% for each different combination.
# (§5) 50 μL of each well were then transferred from the masterblock into 96-well plates to whom were then added 50 μL of the final inoculum. MIC tests were performed by broth microdilution in line with CLSI susceptibility testing standards. Bacterial inocula were prepared at ca. 1 × 10^6 CFU/mL by diluting 100-fold a 0.5 McFarland suspension in CA-MHB with TES (TREK Diagnostic Systems, Product code: T3462; Batch: 356347; Expiry date: 12-Jun-2019). 50 μL of antibacterial solutions at 2 × the final concentrations were diluted 2-fold with 50 μL of inoculum to give a final inoculum of ca. 5 × 10^5 CFU/mL and desired test concentrations of antibacterial agents. Test plates were incubated according to CLSI guidelines and read visually. MIC values corresponded to the first well with no visible growth.
# E. coli ATCC BAA-2523 = test: MIC by broth microdilution, β-lactam-resistant strain producing OXA-48; format: cell-based, Escherichia coli; settings: for MIC: Escherichia coli, ATCCBAA2523, β-lactam alone, read-out: MIC β-lactam
# Description: as §1, §2, §3, §4, §5
# [1] = system: K. pneumoniae ATCC BAA-2524; test: as above; format: cell-based, Klebsiella pneumoniae; settings: for MIC: Klebsiella pneumoniae, ATCCBAA2524, β-lactam alone, read-out: MIC β-lactam
# Description: as §1, §2, §3, §4, §5
# OXA-48 = molecular target: T1, OXA-48 (Klebsiella pneumoniae, UniProt Q6XEC0); test: OXA-48 primary enzymatic assay (nitrocefin substrate, fluorescence-quenching readout); format: biochemical; settings: for AC50 / OXA-48 AC50: dose–response, median of triplicate wells, 15 min preincubation, 25 µM nitrocefin; for fold loss in potency/activity versus parent compound: AC50 ratio, parent ID3 for ID6, parent ID2 for 3 and 5–9
# T1 construct: made in house; host or cells: E. coli BL21(DE3), T7 expression system
# T1 sequence (Q6XEC0 23-265, looked up): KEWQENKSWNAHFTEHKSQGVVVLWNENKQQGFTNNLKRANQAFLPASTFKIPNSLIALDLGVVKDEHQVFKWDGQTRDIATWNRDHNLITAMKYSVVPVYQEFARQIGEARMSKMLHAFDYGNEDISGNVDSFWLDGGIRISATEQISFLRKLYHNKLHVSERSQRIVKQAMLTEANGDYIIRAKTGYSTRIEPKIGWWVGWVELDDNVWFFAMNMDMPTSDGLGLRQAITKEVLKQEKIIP
# Protocol: After an initial pilot run (three plates, consisting of 960 randomly selected compounds), the primary screening of the subset plates was carried out at 20 µM in single point against OXA-48 enzyme in a nitrocefin-based assay, using the fluorescence-quenching readout. This enzymatic assay employs the cephalosporin nitrocefin as OXA-48 substrate and takes advantage of the fluorescent properties of white microtiter plates. Chromogenic nitrocefin is hydrolyzed by β-lactamases to yield a product with increased absorbance properties (~495 nm) that quenches the plate fluorescence by absorbing the plate’s emission light. In this assay, test compounds that inhibit OXA-48 catalytic activity are predicted to reduce nitrocefin quenching of plate fluorescence, resulting in a quantitative increase in well fluorescence (ON-system for inhibitors). The nitrocefin-based epi-absorbance readout system has been successfully applied in HTS campaigns on other β-lactamases, such as IMP-1 and VIM-2, with the identification of inhibitors belonging to novel scaffolds displaying a favourable degree of selectivity and sub-micromolar potency.
# The screening results were expressed as activity percent. […] Overall, the primary assay robustness was good, with Robust Z Prime factor (RZ′) equal to 0.86.
# In total, 256 active molecules (125 from the subset and 131 from the full set) were then assayed in dose–response at eight concentrations from 60 to 0.002 µM with interplate triplicate data points.
# The blaOXA gene coding for the OXA-48 ß-lactamase, originally cloned from the K. pneumonia 11978 (a clinical isolate from Istanbul Faculty Hospital, Istanbul, Turkey) was overexpressed via a T7 expression system in E. coli BL21(DE3), and its product, native protein, (final yield of 30 mg/L of culture) was subjected to several purification steps, including ion-exchange chromatography with Q-Sepharose and 20 mM Tris-HCl buffer (pH 9.0), followed by chromatography with S-Sepharose columns and 100 mM sodium phosphate buffer (pH 5.8). Elution of the beta-lactamase was performed with a K2SO4 gradient. Peaks of beta-lactamase activity were concentrated and were dialyzed with 100 mM phosphate buffer (pH 7.0). The OXA-48 enzyme was purified to homogeneity (with a degree of purity around 95.4%.)-as measured by 12% SDS PAGE [23]. OXA-48 protein stock solution (2 mg/mL) was finally prepared in 20 mM Hepes (pH 8,1). OXA-48 β-lactamase specific activity was measured by following the hydrolysis of 100 μM nitrocefin (ε: 17,000 M-1 cm^−1 at 482 nm; Δε: 15,000 M-1 cm^−1 at 482 nm) and corresponding to 60.45 μmoles min^−1 mg^−1 of OXA-48 (kcat = 28.85 s^−1) enzyme. A MW of 28,147 g/mol, calculated from the enzyme sequence was confirmed by MALDI-TOF analysis with a Mass error of ± 2.8 Da.
# The primary assay was developed to monitor the enzymatic activity of OXA-48 taking advantage of the spectroscopic properties of white microtiter plates (Optiplate-384, PerkinElmer, #6007290), as indicated by Zuck et al.. Nitrocefin is chromogenic substrate for beta-lactamases with λmax = 395 nm (yellow). Upon hydrolysis by OXA-48, nitrocefin yields (2R)-2-[(R)-carboxy[2-(thiophen-2-yl)acetamido]methyl]-5-[(E)-2-(2,4-dinitrophenyl)ethenyl]-3,6-dihydro-2H-1,3-thiazine-4-carboxylic acid, with increased absorbance properties at λmax = 495 nm. Spectroscopic features of the reaction product are exploited to quench the plate intrinsic fluorescence by absorbing the plate’s emission light, which can be monitored by exciting the reaction at 485 nm and recording the emission at 520 nm. Therefore, the primary assay for HTS was an ON-assay, in which compounds targeting OXA-48 were predicted to elicit an increase of the fluorescence signal.
# The primary assay was performed in reaction buffer (20 mM Hepes pH 8.0, 12.5 mM NaCl, 0.005% BSA, 0.0005% Brij-35) in the presence of 0.0014 ng/µL OXA-48 and 25 µM nitrocefin in a final volume of 20 µL/well in 384 MTP format. […]
SMILES,AC50 (OXA-48) [µM],further results
"CC1(C)S[C@@H]2[C@H](NC(=O)[C@H](N)c3ccccc3)C(=O)N2[C@H]1C(=O)O [AMP, ampicillin]",,MIC (E. coli ATCC25922): 4 µg/mL; MIC (E. coli ATCC BAA-2523): > 512 µg/mL; MIC β-lactam (E. coli ATCC BAA-2523; β-lactam alone): >512 µg/mL; MIC [1]: > 512 µg/mL; MIC β-lactam ([1]; β-lactam alone): >512 µg/mL
"CCc1ccc(-c2n[nH]c3nc(-c4ccc(C(=O)O)c(F)c4)cc(C(=O)O)c23)cc1 [Compound 1, 6-(4-Carboxy-3-fluorophenyl)-3-(4-ethylphenyl)-1H-pyrazolo[3,4-b]pyridine-4-carboxylic acid]",0.92,
"CCc1ccc(-c2n[nH]c3nc(-c4ccc(C(=O)O)cc4F)cc(C(=O)O)c23)cc1 [Compound 2, 6-(4-Carboxy-2-fluorophenyl)-3-(4-ethylphenyl)-1H-pyrazolo[3,4-b]pyridine-4-carboxylic acid]",1.48,
"CCc1ccc(-c2n[nH]c3nc(-c4cccc(C(=O)O)c4)cc(C(=O)O)c23)cc1 [Compound 3, 6-(3-Carboxyphenyl)-3-(4-ethylphenyl)-1H-pyrazolo[3,4-b]pyridine-4-carboxylic acid]",16.8,fold loss in potency/activity versus parent compound (OXA-48): 17 fold
"CCc1ccc(-c2n[nH]c3nc(-c4ccc(CC(=O)O)cc4)cc(C(=O)O)c23)cc1 [Compound 4, 6-(4-(Carboxymethyl)phenyl)-3-(4-ethylphenyl)-1H-pyrazolo[3,4-b]pyridine-4-carboxylic acid]",4.78,
"CCc1ccc(-c2n[nH]c3nc(-c4cc(F)c(O)cc4F)cc(C(=O)O)c23)cc1 [Compound 5, 6-(2,5-Difluoro-4-hydroxyphenyl)-3-(4-ethylphenyl)-1H-pyrazolo[3,4-b]pyridine-4-carboxylic acid]",16.2,
"CCc1ccc(-c2n[nH]c3nc(-c4cc(F)c(O)c(F)c4)cc(C(=O)O)c23)cc1 [Compound 6, 6-(3,5-Difluoro-4-hydroxyphenyl)-3-(4-ethylphenyl)-1H-pyrazolo[3,4-b]pyridine-4-carboxylic acid]",24.4,
"CCc1ccc(-c2n[nH]c3nc(-c4ccc(O)c(F)c4F)cc(C(=O)O)c23)cc1 [Compound 7, 6-(2,3-Difluoro-4-hydroxyphenyl)-3-(4-ethylphenyl)-1H-pyrazolo[3,4-b]pyridine-4-carboxylic acid]",51.2,
"CCc1ccc(-c2n[nH]c3nc(-c4cc(Cl)c(O)c(OC)c4)cc(C(=O)O)c23)cc1 [Compound 8, 6-(3-Chloro-4-hydroxy-5-methoxyphenyl)-3-(4-ethylphenyl)-1H-pyrazolo[3,4-b]pyridine-4-carboxylic acid]",13.7,
"CCc1ccc(-c2n[nH]c3nc(-c4cc(F)c(O)c(Cl)c4)cc(C(=O)O)c23)cc1 [Compound 9, 6-(3-Chloro-5-fluoro-4-hydroxyphenyl)-3-(4-ethylphenyl)-1H-pyrazolo[3,4-b]pyridine-4-carboxylic acid]",63.8,
"CCc1ccc(-c2n[nH]c3nc(-c4ccc(C(=O)O)cc4)ccc23)cc1 [Compound 10, 4-(3-(4-Ethylphenyl)-1H-pyrazolo[3,4-b]pyridin-6-yl)benzoic acid]",> 100,
"CCc1ccc(-c2n[nH]c3nc(-c4ccc(C(=O)O)cc4)cc(C(F)(F)F)c23)cc1 [Compound 11, 4-(3-(4-Ethylphenyl)-4-(trifluoromethyl)-1H-pyrazolo[3,4-b]pyridin-6-yl)benzoic acid]",> 100,
"CCc1ccc(-c2n[nH]c3nc(-c4ccc(C(=O)O)cc4)cc(CO)c23)cc1 [Compound 12, 4-(3-(4-Ethylphenyl)-4-(hydroxymethyl)-1H-pyrazolo[3,4-b]pyridin-6-yl)benzoic acid]",> 100,OXA-48 AC50 (OXA-48): complete loss of activity
"CCc1ccc(-c2n[nH]c3nc(-c4ccc(C(=O)O)cc4)cc(CC)c23)cc1 [Compound 13, 4-(4-Ethyl-3-(4-ethylphenyl)-1H-pyrazolo[3,4-b]pyridin-6-yl)benzoic acid]",> 100,
"CCc1ccc(-c2n[nH]c3nc(-c4ccc(C(=O)O)cc4)cc(C(N)=O)c23)cc1 [Compound 14, 4-(4-Carbamoyl-3-(4-ethylphenyl)-1H-pyrazolo[3,4-b]pyridin-6-yl)benzoic acid]",,OXA-48 AC50 (OXA-48): complete loss of activity
O=C(O)c1ccc(/C=N/n2cnnc2S)cc1 [ID6],15.7,fold loss in potency/activity versus parent compound (OXA-48): more than 20 fold
CCc1ccc(-c2n[nH]c3nc(-c4ccccc4)cc(C(=O)O)c23)cc1 [ID30],249,OXA-48 AC50 (OXA-48): inactive
CCc1ccc(-c2n[nH]c3nc(-c4ccccc4O)cc(C(=O)O)c23)cc1 [ID31],,OXA-48 AC50 (OXA-48): inactive
"C[C@@H](O)[C@H]1C(=O)N2C(C(=O)O)=C(SCCN=CN)C[C@H]12 [IMP, imipenem]",,MIC (E. coli ATCC25922): 0.12 µg/mL; MIC (E. coli ATCC BAA-2523): 2 µg/mL; MIC [1]: 4 µg/mL

# Now from value to compound, other results behind:
AC50 (OXA-48) [µM],SMILES,further results
3.17,O=C(O)c1ccc(/C=N/n2c(S)nnc2-c2ccc(Cl)cc2Cl)cc1 [ID4],
2.88,O=C(O)c1ccc(/C=N/n2c(S)nnc2C2CCCCC2)cc1 [ID5],
35.6,COC(=O)c1ccc(/C=N/n2c(S)nnc2-c2ccccc2)cc1 [ID9],
12,N#Cc1ccc(/C=N/n2c(S)nnc2-c2ccccc2)cc1 [ID11],
24.8,Sc1nnc(-c2ccccc2)n1/N=C/c1cccs1 [ID23],
